Experimental data reported in patent US10160755B2 (Plexxikon Inc., priority 2015, dated 2018).

Experiments:
FLT3-ITD = molecular target: T1, FLT3-ITD (Homo sapiens, UniProt P36888); test: FLT3-ITD biochemical kinase assay (AlphaScreen)
T1 construct: FLT3-ITD; Invitrogen #PV6190
T1 sequence (P36888 1-993): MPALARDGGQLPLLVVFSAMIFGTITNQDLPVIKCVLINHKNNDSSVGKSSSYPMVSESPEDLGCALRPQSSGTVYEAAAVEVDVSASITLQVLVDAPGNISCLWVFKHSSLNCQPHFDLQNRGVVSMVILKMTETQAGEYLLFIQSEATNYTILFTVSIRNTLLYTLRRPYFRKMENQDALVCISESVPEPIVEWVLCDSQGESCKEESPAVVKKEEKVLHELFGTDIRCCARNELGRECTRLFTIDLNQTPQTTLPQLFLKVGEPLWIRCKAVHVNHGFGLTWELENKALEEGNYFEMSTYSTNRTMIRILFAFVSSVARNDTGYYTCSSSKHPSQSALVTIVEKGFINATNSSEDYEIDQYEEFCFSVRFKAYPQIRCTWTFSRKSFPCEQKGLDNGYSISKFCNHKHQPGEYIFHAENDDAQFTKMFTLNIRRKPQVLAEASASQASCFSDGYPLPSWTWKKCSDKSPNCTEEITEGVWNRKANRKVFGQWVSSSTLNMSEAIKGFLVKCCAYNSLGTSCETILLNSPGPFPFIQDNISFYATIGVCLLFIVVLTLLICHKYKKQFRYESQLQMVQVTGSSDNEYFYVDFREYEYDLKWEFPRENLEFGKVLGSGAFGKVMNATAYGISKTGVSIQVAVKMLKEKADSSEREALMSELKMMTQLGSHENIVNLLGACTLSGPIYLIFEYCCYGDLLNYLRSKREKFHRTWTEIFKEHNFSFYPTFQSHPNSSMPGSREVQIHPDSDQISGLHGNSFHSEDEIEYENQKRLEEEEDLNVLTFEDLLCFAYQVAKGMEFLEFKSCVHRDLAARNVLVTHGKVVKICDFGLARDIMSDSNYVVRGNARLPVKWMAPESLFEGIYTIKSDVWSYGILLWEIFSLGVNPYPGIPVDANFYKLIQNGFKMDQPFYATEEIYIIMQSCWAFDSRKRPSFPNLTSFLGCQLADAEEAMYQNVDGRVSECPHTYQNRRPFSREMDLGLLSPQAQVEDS
Outline: (§1)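 Compounds were tested against recombinant enzyme using AlphaScreen detection of tyrosine-phosphorylated biotin-poly(Glu4-Tyr) (30 nM final). The ATP concentration differed by construct: 10 μM for D835Y, 100 μM for ITD.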

FLT3-D835Y = molecular target: T2, FLT3-D835Y (Homo sapiens, UniProt P36888, D835Y); test: FLT3-D835Y biochemical kinase assay (AlphaScreen)
T2 construct: purchased Invitrogen PV3967
T2 sequence (P36888 27-993 D835Y): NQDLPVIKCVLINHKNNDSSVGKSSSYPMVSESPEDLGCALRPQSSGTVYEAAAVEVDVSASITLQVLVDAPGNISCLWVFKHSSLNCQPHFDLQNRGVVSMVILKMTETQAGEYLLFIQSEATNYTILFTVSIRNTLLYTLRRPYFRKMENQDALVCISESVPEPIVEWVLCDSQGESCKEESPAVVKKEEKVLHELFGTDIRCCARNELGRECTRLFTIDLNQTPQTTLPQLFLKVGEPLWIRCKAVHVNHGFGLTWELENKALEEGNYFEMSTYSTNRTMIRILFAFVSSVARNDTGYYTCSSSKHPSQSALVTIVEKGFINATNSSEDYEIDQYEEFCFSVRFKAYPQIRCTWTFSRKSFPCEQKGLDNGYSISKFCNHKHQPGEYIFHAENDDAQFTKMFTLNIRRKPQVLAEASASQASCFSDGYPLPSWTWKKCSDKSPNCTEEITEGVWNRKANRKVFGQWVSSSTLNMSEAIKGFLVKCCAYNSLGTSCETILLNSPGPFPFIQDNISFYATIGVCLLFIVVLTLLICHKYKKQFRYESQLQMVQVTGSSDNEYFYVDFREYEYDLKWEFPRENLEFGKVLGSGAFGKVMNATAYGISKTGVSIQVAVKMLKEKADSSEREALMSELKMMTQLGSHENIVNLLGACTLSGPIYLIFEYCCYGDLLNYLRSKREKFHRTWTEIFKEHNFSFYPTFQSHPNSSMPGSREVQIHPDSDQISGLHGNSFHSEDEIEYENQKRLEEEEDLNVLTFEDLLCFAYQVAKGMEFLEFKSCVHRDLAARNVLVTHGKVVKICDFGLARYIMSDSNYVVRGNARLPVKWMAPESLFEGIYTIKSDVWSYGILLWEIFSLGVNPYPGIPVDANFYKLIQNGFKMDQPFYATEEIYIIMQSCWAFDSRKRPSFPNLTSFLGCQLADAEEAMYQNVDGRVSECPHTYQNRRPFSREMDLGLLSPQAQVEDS
Outline: as §1

| SMILES | IC50 (FLT3-ITD) [µM] | IC50 (FLT3-D835Y) [µM] |
| --- | --- | --- |
| CN(C)c1ncc(-c2cnc3[nH]cc(-c4ccc5ncn(C(C)(C)C)c5c4)c3n2)cn1 [P-378, 5-[7-(3-tert-butylbenzimidazol-5-yl)-5H-pyrrolo[2,3-b]pyrazin-2-yl]-N,N-dimethyl-pyrimidin-2-amine] | 0.0001 to 1 | 0.0001 to 1 |
| COc1cc(-c2cnc3[nH]cc(-c4ccc5ncn(C)c5c4)c3n2)cc(C)n1 [P-180, 2-(2-methoxy-6-methyl-4-pyridyl)-7-(3-methylbenzimidazol-5-yl)-5H-pyrrolo[2,3-b]pyrazine] | 0.0001 to 1 | 0.0001 to 1 |
| COc1cnc2[nH]cc(-c3ccc4c(c3)N(C)CCO4)c2c1 [P-107, 6-(5-methoxy-1H-pyrrolo[2,3-b]pyridin-3-yl)-4-methyl-2,3-dihydro-1,4-benzoxazine] | 0.0001 to 1 | 0.0001 to 1 |
| N#Cc1cccc(-c2cnc3[nH]cc(-c4ccc5ncn(C6CCCNC6)c5c4)c3c2)c1 (centres unmarked) [P-200, 3-[3-[3-(3-piperidyl)benzimidazol-5-yl]-1H-pyrrolo[2,3-b]pyridin-5-yl]benzonitrile] | 0.0001 to 1 | 0.0001 to 1 |
| CC(C)(C)n1cnc2ccc(-c3c[nH]c4ncc(-c5cccc(OC(F)(F)F)c5)nc34)cc21 [P-191, 7-(3-tert-butylbenzimidazol-5-yl)-2-[3-(trifluoromethoxy)phenyl]-5H-pyrrolo[2,3-b]pyrazine] | 0.0001 to 1 | 0.0001 to 1 |
| COc1cnc2[nH]cc(-c3cnc4ncn(Cc5ccccc5)c4c3)c2c1 [P-143, 1-benzyl-6-(5-methoxy-1H-pyrrolo[2,3-b]pyridin-3-yl)imidazo[4,5-b]pyridine] | 0.0001 to 1 | 0.0001 to 1 |
| CN1CCN(c2ncc(-c3cnc4[nH]cc(-c5ccc6ncn(C(C)(C)C)c6c5)c4n3)cn2)CC1 [P-349, 7-(3-tert-butylbenzimidazol-5-yl)-2-[2-(4-methylpiperazin-1-yl)pyrimidin-5-yl]-5H-pyrrolo[2,3-b]pyrazine] | 0.0001 to 1 | 0.0001 to 1 |
| CN(c1cccc(-c2cnc3[nH]cc(-c4ccc5ncsc5c4)c3n2)c1)S(C)(=O)=O [P-167, N-[3-[7-(1,3-benzothiazol-6-yl)-5H-pyrrolo[2,3-b]pyrazin-2-yl]phenyl]-N-methyl-methanesulfonamide] | 0.0001 to 1 | 0.0001 to 1 |
| COc1cc(-c2cnc3[nH]cc(-c4ccc5ncsc5c4)c3n2)cc(C)n1 [P-173, 6-[2-(2-methoxy-6-methyl-4-pyridyl)-5H-pyrrolo[2,3-b]pyrazin-7-yl]-1,3-benzothiazole] | 0.0001 to 1 | 0.0001 to 1 |
| O=S1(=O)CCCN1c1cccc(-c2cnc3[nH]cc(-c4ccc5ncsc5c4)c3n2)c1 [P-170, 2-[3-[7-(1,3-benzothiazol-6-yl)-5H-pyrrolo[2,3-b]pyrazin-2-yl]phenyl]-1,2-thiazolidine 1,1-dioxide] | 0.0001 to 1 | 0.0001 to 1 |
| CCS(=O)(=O)Nc1cccc(-c2cnc3[nH]cc(-c4ccc5ncsc5c4)c3n2)c1 [P-169, N-[3-[7-(1,3-benzothiazol-6-yl)-5H-pyrrolo[2,3-b]pyrazin-2-yl]phenyl]ethanesulfonamide] | 0.0001 to 1 | 0.0001 to 1 |
| COc1cnc2[nH]cc(-c3ccc4c(c3)ncn4C)c2c1 [P-102, 5-methoxy-3-(1-methylbenzimidazol-5-yl)-1H-pyrrolo[2,3-b]pyridine] | 10 to 200 | 1 to 10 |
| Fc1ccc(-n2cnc3ccc(-c4c[nH]c5ncc(-c6cccc(OC(F)(F)F)c6)nc45)cc32)cc1 [P-192, 7-[3-(4-fluorophenyl)benzimidazol-5-yl]-2-[3-(trifluoromethoxy)phenyl]-5H-pyrrolo[2,3-b]pyrazine] | 0.0001 to 1 | 0.0001 to 1 |
| O=C(C1CC1)N1CC=C(c2cnc3[nH]cc(-c4ccc5c(c4)N(CC(F)(F)F)CCO5)c3n2)C1 [P-190] | 0.0001 to 1 | 0.0001 to 1 |
| COc1cc(-c2cnc3[nH]cc(-c4ccc5ncsc5c4)c3n2)ccc1Cl [P-161, 6-[2-(4-chloro-3-methoxy-phenyl)-5H-pyrrolo[2,3-b]pyrazin-7-yl]-1,3-benzothiazole] | 1 to 10 | 0.0001 to 1 |
| Cn1cnc2ccc(-c3c[nH]c4ncc(-c5cccc(C(=O)NC6CC6)c5)nc34)cc21 [P-147, N-cyclopropyl-3-[7-(3-methylbenzimidazol-5-yl)-5H-pyrrolo[2,3-b]pyrazin-2-yl]benzamide] | 0.0001 to 1 | 0.0001 to 1 |
